From patent US7696161B2, “Exendin agonist compounds” (Amylin Pharmaceuticals, Inc., priority 1997, dated 2010) come the findings set out here.

pEC50: −log10 of the molar value.

Assay [1] concerns the target cyclase (RINm5f membranes). Kind of assay: Cyclase activation study (cAMP by SPA immunoassay, membranes). In kind it is biochemical. As to conditions: cAMP in membranes, 20 minutes incubation at 37° C. On the procedure:
GLP-1(7-36) [NH2] was purchased from Bachem (Torrance, Calif.). All other peptides were prepared using synthesis methods such as those described therein. All chemicals were of the highest commercial grade. The cAMP SPA immunoassay was purchased from Amersham. The radioligands were purchased from New England Nuclear (Boston, Mass.). […] Cells were grown to confluence then harvested and homogenized using on a Polytron homogenizer. Cell homogenates were stored frozen at −70° C. until used. […] Membranes and peptides were combined in […] of assay buffer in 96 well filter-bottom plates (Millipore Corp., Bedford, Mass.). […] Supernatant cAMP contents were quantitated by SPA immunoassay. […] The biological activity of a particular sample was expressed as an EC50 value, calculated as described above.

Assay [2] deals with C57BLKS/J-m-db mice. The assay can be described thus: Determination of blood glucose levels in db/db mice. The assay is classed as in vivo. Particulars: 1 μg subcutaneous, plasma glucose one hour after injection vs baseline.
The subject of assay [3] is Harlan Sprague Dawley (HSD) rats. The assay can be described thus: Gastric emptying in rats (phenol red gel gavage). The assay is classed as in vivo. As to conditions: for EC50 (gastric emptying): conscious male HSD rats, gastric contents remaining 20 min after gavage; for effect on gastric emptying (in words): male HSD rats, dose-response 0.1-100 μg. An excerpt:
This experiment followed a modification of the method of Scarpignato, et al., Arch. Int. Pharmacodyn. […] Male Harlan Sprague Dawley (HSD) rats were used. […] ID. […] Twenty minutes after gavage, rats were anesthetized using 5% halothane, the stomach exposed and clamped at the pyloric and lower esophageal sphincters using artery forceps, removed and opened into an alkaline solution which was made up to a fixed volume. Stomach content was derived from the intensity of the phenol red in the alkaline solution, measured by absorbance at a wavelength of 560 nm. In separate experiments on 7 rats, the stomach and small intestine were both excised and opened into an alkaline solution. […] ID.

As a reminder, the pEC50 is the EC50 on a negative log10 scale, so that one unit is a factor of ten. `CC[C@H](C)[C@H](NC(=O)[C@H](Cc1ccccc1)NC(=O)[C@H](CC(C)C)NC(=O)[C@H](CCCNC(=N)N)NC(=O)[C@@H](NC(=O)[C@H](C)NC(=O)[C@H](CCC(=O)O)NC(=O)[C@H](CCC(=O)O)NC(=O)[C@H](C)NC(=O)[C@H](CC(C)C)NC(=O)[C@H](CCC(N)=O)NC(=O)[C@H](CCCCN)NC(=O)[C@H](CO)NC(=O)[C@H](CC(C)C)NC(=O)[C@H](CC(=O)O)NC(=O)[C@H](CO)NC(=O)[C@@H](NC(=O)[C@H](Cc1ccccc1)NC(=O)[C@@H](NC(=O)CNC(=O)[C@H](CCC(=O)O)NC(=O)CNC(=O)[C@@H](N)Cc1c[nH]cn1)[C@@H](C)O)[C@@H](C)O)C(C)C)C(=O)N[C@@H](CCC(=O)O)C(=O)N[C@@H](Cc1ccccc1)C(=O)N[C@@H](CC(C)C)C(=O)N[C@@H](CCCCN)C(=O)N[C@@H](CC(N)=O)C(N)=O` [Compound 13]: in assay [1], the pEC50 is 7.10. Also, the “% drop in glucose” value in assay [2] was 45%. Besides, in assay [3], the “EC50 (gastric emptying)” value is 60 µg and the “effect on gastric emptying (in words)” value is “potent inhibitors of gastric emptying”.

In the case of `CC[C@H](C)[C@H](NC(=O)[C@H](Cc1ccccc1)NC(=O)[C@H](CC(C)C)NC(=O)[C@H](CCCNC(=N)N)NC(=O)[C@@H](NC(=O)[C@H](C)NC(=O)[C@H](CCC(=O)O)NC(=O)[C@H](CCC(=O)O)NC(=O)[C@H](CCC(=O)O)NC(=O)[C@H](CC(C)C)NC(=O)[C@H](CCC(N)=O)NC(=O)[C@H](C)NC(=O)[C@H](CO)NC(=O)[C@H](CC(C)C)NC(=O)[C@H](CC(=O)O)NC(=O)[C@H](CO)NC(=O)[C@@H](NC(=O)[C@H](Cc1ccccc1)NC(=O)[C@@H](NC(=O)CNC(=O)[C@H](CCC(=O)O)NC(=O)CNC(=O)[C@@H](N)Cc1c[nH]cn1)[C@@H](C)O)[C@@H](C)O)C(C)C)C(=O)N[C@@H](CCC(=O)O)C(=O)N[C@@H](Cc1ccccc1)C(=O)N[C@@H](CC(C)C)C(=O)N[C@@H](CCCCN)C(=O)N[C@@H](CC(N)=O)C(N)=O` [Compound 10], in assay [1], the pEC50 was 8.27. Moreover, in assay [2], the “% drop in glucose” value turned out to be 46%. Also, in assay [3], the “EC50 (gastric emptying)” value came out at 0.27 µg and the “effect on gastric emptying (in words)” value is on record as “potent inhibitors of gastric emptying”.
